Assay results reported in patent publication US20100099109A1, “Methods for Analyzing Drug Response” (NODALITY, INC., A DELAWARE CORPORATION, priority 2008, published 2010).
Entries after “also recorded” stand apart in the source; their conditions may differ.

Tests used:
[1] = system: primary AML cell sample; assay: Mylotarg response signatures (DNA damage response by p-CHK2/p-H2AX; apoptosis by cleaved PARP, FSC and viability dyes), flow cytometry; format: cell-based, human
Experimental: The present illustrative example represents how to analyze cells in one embodiment of the present invention. There are several steps in the process, such as treatment with modulator, incubation with antibodies, and processing sample for acquisition of cells on the cytometer. Treatment with modulator(s) can start with thawed cryopreserved cells and end with cells fixed in PFA and permeabilized in methanol. Then the cells can be incubated with an antibody directed to a particular protein of interest and then analyzed using a flow cytometer. A protocol similar to the following was used to analyze AML cells from patient samples. The materials and methods described in this example can be used and/or were used in the other examples described below.
Cell thawing and live/dead staining: Cells are thawed_in a 37° C. water bath, gently resuspend in the vial, and transferred to a 15 mL conical tube. The 15 mL tube is centrifuged at 930 RPM (200×g) for 8 minutes at room temperature. The supernatant is then aspirated, and the pellet is gently resuspended in 1 mL media A. The cell suspension is filtered through a 70 um cell strainer into a new 15 mL tube. The cell strainer is then rinsed with 1 mL media A and another 12 mL of media A into the 15 mL tube. Collected cells are then mixed into an even suspension. A 20 μl, aliquot of this suspension is immediately transferred into a 96-well plate containing 180 μl, PBS+4% FBS+CD45 Alexa 700+PI to determine cell count and viability post spin. After the determination, the 15 mL tubes are centrifuged at 930 RPM (200×g) for 8 minutes at room temperature. The resulting supernatant is aspirated, and the cells are gently resuspended in 4 mL PBS+4 μl, Amine Aqua (another equivalent viability dye can be used instead) and incubated for 15 min in a 37° C. incubator. 10 mL RPMI+1% FBS are added to the cell suspension, followed by inversion mixing. The 15 mL tubes are centrifuged at 930 RPM (200×g) for 8 minutes at room temperature. The stained cells are then resuspended in Media A at the desired cell concentration (1.25×10^6/mL). • a. Samples with low numbers of cells (<18.5×10^6) are resuspend in up to 15 mL of media. • b. For samples with high numbers of cells (>18.5×10^6), the volume is raised to 10 mL with media A and the desired volume is transferred to a new 15 mL tube, adjusting the cell concentration to 1.25×10^6 cells/mL. 1.6 mL of the above cell suspension are then transferred into wells of a multi-well plate, from which 80 ul are distributed into each well of a subsequent plate. Plates are covered with a lid (Nunc) and placed in a 37° C. incubator for 2 hours to rest.
Treatment of Cells with a Modulator: A concentration for each stimulant that is five fold (5×) more than the final concentration is prepared using Media A as diluent. The 5× stimulants are arrayed in a standard 96 well v-bottom plate that correspond to the wells on the plate with cells to be stimulated. Fixative is prepared by dilution of stock 16% paraformaldehyde with PBS to a concentration that is 1.5×, then placed in a 37° C. water bath. Once the plated cells have completed their incubation, the plate(s) are taken out of the incubator and place in a 37° C. water bath next to the pipette apparatus. Prior to addition of stimulant, each plate of cells is taken from the water bath and gently swirled to resuspend any settled cells. The stimulant is pipetted into the cell plate, which is then held over a vortexer set to “7” and mixed for 5 seconds, and followed by the return of the deep well plate to the water bath.
Fixing Cells: 200 μL of the fixative solution (final concentration is 1.6%) is dispensed into wells and then mixed on the titer plate shaker on high for 5 seconds. The plate is then covered with foil sealer and floated in 37° C. water bath for 10 min, followed by a 6 min spin at 2000 rpm at room temperature.

[2] = system: Mylotarg sensitive cell lines; assay: Mylotarg exposure and modulated signaling in sensitive cell lines; format: cell-based
Experimental: (§1) The experimental measurements included forward and side scatter, the use of viability dyes (amine aqua and propidium iodide (PI)), and determination of cell cycle and apoptosis by measuring DNA content with DRAQ5. Additionally, cell cycle progression was measured by determining levels of cyclin B1, phosphorylated histone H3, and phosphorylated CDK-1. All these determinations were made in freshly thawed as well as in cultured cycling cells.
(§2) After incubation with fluorochrome-conjugated antibody panels that recognized: p-H2AX, p-Chk2, p-ATM, p-53, cleaved PARP and cleaved caspase 3, cells were processed for cytometry as described above.
(§3) Experiments were conducted in which cell lines were exposed for 5-15 minutes to growth factors and cytokines, after which cells were fixed, permeabilized and incubated with panels of fluorochrome-conjugated antibody panels that recognized intracellular signaling molecules. After processing, cells were acquired on the cytometer.

[3] = system: Mylotarg refractory cell lines; assay: Mylotarg exposure and modulated signaling in resistant cell lines; format: cell-based
Experimental: as §1, §2, §3

[4] = system: KG-1 cells; assay: Mylotarg exposure, multiparameter flow cytometry of DNA damage, cell cycle and apoptosis; format: cell-based
Text: (§4) ATM activity also phosphorylates Chk2 and p53. […] Cyclin B1 is produced during the G2 phase of the cell cycle and its accumulation drives the cell cycle into M phase. Therefore, low levels of Cyclin B1 mark G1 and S phases, high levels mark G2 phase, and higher levels mark M phase. Histone H3 (S28) becomes phosphorylated in M phase, making p-Histone H3(S28) a useful marker of cells in M phase and not G2. It is also possible to monitor the G2/M phases of the cell cycle by measuring the phosphorylation status of Cdk1, previously known as Cdc2, a cyclin-dependent protein kinase that controls the cell cycle entry from G2 to M phase. An inhibitory phosphorylation on Cdk1 is removed by CDC25C in the M phase transition, allowing G2 cells to be distinguished from M cells based on levels of p-Cdk1. […] Treating cells with the microtubule polymerization inhibitor Nocodazole induces cells cycle arrest in M phase without DNA damage.
as §1
(§5) The experiments were conducted in a similar fashion as shown above for examples 1 and 2. […] After incubation with fluorochrome-conjugated antibody panels that recognized: p-H2AX, p-Chk2, p-ATM, p-53, cleaved PARP and cleaved caspase 3, cells were processed for cytometry as described above.

[5] = system: GDM-1 cells; assay: as above; format: cell-based
Text: as §4, §1, §5

[6] = system: U937 cell line; assay: Mylotarg/Nocodazole exposure, multiparameter flow cytometry of DNA damage, cell cycle and apoptosis; format: cell-based
Text: as §4, §1, §2

[7] = system: Healthy myeloid cells; assay: Mylotarg treatment of healthy myeloid cells (DNA damage and apoptosis); format: cell-based; conditions: at 72 h
Text: In some embodiments, the invention may identify a set of drug response signatures in disease cells. The drug response signature is a profile of the activation levels of activatable elements following in vitro exposure of patient samples to a drug and one or more modulators, and can predict whether patients may respond to the drug. […] In some embodiments, other measurements of cell viability may be used, for example cleaved caspase 3, or amount of dyes staining or other stains, for example: propidium idodide, SYTOX, TUNEL, or acridine orange. […] For review, see van Attikum H., and Gasser S. M. Trends in Cell Biology 19: pp. 207-17 (2009). ATR and ATM kinase activity in response to DNA damage activates Chk1 and Chk2, respectively. […] For review, see Abraham, R. T. Cell cycle checkpoint signaling through the ATM and ATR kinases. Genes & Dev. 15: 2177-96 (2001). […] This is also seen at earlier timepoints.

[8] = system: Peripheral blood mononuclear cells and bone marrow mononuclear cells derived from AML and healthy samples; assay: Expression marker levels after Mylotarg exposure; format: cell-based
[9] = lyophilized powder; cited from earlier work
[10] = system: Ramos cells; assay: Mylotarg exposure, multiparameter flow cytometry of DNA damage and cell cycle; format: cell-based
Text: as §4
as §1, with “cells. […]” for “cells.”

## gemtuzumab ozogamicin [Mylotarg]
[1]; signature 1 sample, 6 hours of exposure to Mylotarg
  CD33++ cells with induced DNA damage response, as measured by p-CHK2 and p-H2AX: approximately 60%
[1]; signature 1 sample, after 24 and 48 hours
  live myeloid cells becoming PARP+: 22%
[1]; signature 2 sample, 6 hours of exposure to Mylotarg
  CD33++ cells with induced DNA damage response, as measured by p-CHK2 and p-H2AX: approximately 80%
[1]; signature 2 sample, after 24 or 48 hours
  live myeloid cells becoming PARP+: 4%
[1]; signature 3 sample
  live myeloid cells becoming PARP+: 8%
[1]; signature 3 sample, 6 hours of exposure to Mylotarg
  CD33+ cells with induced DNA damage response, as measured by p-CHK2 and p-H2AX: approximately 15%
[2]
  G2/M arrest: G2/M arrest
  cyclin B1 levels: increase in cyclin B1 levels; also recorded: increased cyclin B1 levels
  p-H2AX and p-Chk2: increased p-H2AX and p-Chk2 without transporter inhibitor
[2]; compared to refractory cell lines
  cell death (scatter, viability and DNA content dyes): more cell death; also recorded: increased percentage of dead cells
[3]
  G2/M arrest: failure to undergo G2/M arrest
  cell death: only modest increase in cell death
  cyclin B1 levels: failure to increase cyclin B1 levels
  p-H2AX and p-Chk2: minimal increase in p-H2AX and p-Chk2
[4]
  DNA damage response (levels of p-H2AX, p-p53, p-Chk2, p-ATM): does not induce changes; also recorded: this was not the case
  cell cycle arrest and apoptosis after Mylotarg treatment: resistant to cell cycle arrest and apoptosis
  proportion of populations of cells arrested in the cell cycle (p-Histone H3(S28), p-CDK1, CyclinB1): does not largely increase
[5]
  DNA damage response (levels of p-H2AX, p-p53, p-Chk2, p-ATM): does not induce changes; also recorded: this was not the case
  cell cycle arrest and apoptosis after Mylotarg treatment: resistant to cell cycle arrest and apoptosis
  proportion of populations of cells arrested in the cell cycle (p-Histone H3(S28), p-CDK1, CyclinB1): does not largely increase
[6]
  DNA damage response (levels of p-H2AX, p-Chk2, p-ATM, p-53): increased levels; also recorded: significant increase
[6]; 24 hours exposure
  cell cycle arrest (Cyclin B1, p-Histone H3(S28), p-Cdk1): arrest at the G2/M checkpoint
[6]; 48 hours exposure
  cell cycle arrest (Cyclin B1, p-Histone H3(S28)): arrest at the G2/M checkpoint, and a minor cell population with increased p-histone H3(S28), indicating minor arrest in M phase
[7]
  cleaved PARP and apoptosis: increases in cleaved PARP and apoptosis
  levels of p-Chk2, p-H2AX, p-ATM, p-P53: increased levels
[8]; exposed for 6 hours
  expression levels of the CD33 and CD13 phenotypic markers for myeloid cells: reduction
[8]; same exposure conditions
  CD11b levels: remain unchanged
[8]; twenty-four (24) hours of exposure
  CD13 levels: reduced
[9]
  light sensitivity of the drug product: light sensitive
[10]
  DNA damage response (levels of p-H2AX, p-p53, p-Chk2, p-ATM): does not induce changes
  proportion of populations of cells arrested in the cell cycle (p-Histone H3(S28), p-CDK1, CyclinB1): does not largely increase
